Reference: PubChem BioAssay (NCI)
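How tested: cells in 96-well plates exposed to compound for 48 hours at five concentrations. GI50 marks 50% less growth. At the TGI there is no net growth.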

Legend:
Assay in all cases: NCI anticancer screen, dose series, 48 h
[1] = tested on: SNB-19 CNS
[2] = tested on: OVCAR-8 ovarian
[3] = tested on: HOP-62 NSCLC
[4] = tested on: SN12C renal
[5] = tested on: UACC-62 melanoma
[6] = tested on: HS 578T breast
[7] = tested on: M14 melanoma
[8] = tested on: CCRF-CEM leukemia
[9] = tested on: SF-539 CNS
[10] = tested on: RPMI-8226 leukemia
[11] = tested on: MDA-MB-231 breast
[12] = tested on: MDA-MB-435
[13] = tested on: A549 NSCLC
[14] = tested on: SK-OV-3 ovarian
[15] = tested on: SK-MEL-5 melanoma
[16] = tested on: NCI/ADR-RES ovarian
[17] = tested on: TK-10 renal
[18] = tested on: SW-620 colon
[19] = tested on: HCC-2998 colon
[20] = tested on: U251 CNS
[21] = tested on: OVCAR-5 ovarian
[22] = tested on: K-562 leukemia
[23] = tested on: UO-31 renal
[24] = tested on: IGROV1 ovarian
[25] = tested on: CAKI-1 renal
[26] = tested on: PC-3 prostate
[27] = tested on: NCI-H522 lung
[28] = tested on: HL-60(TB) leukemia
[29] = tested on: SR leukemia
[30] = tested on: MALME-3M melanoma
[31] = tested on: NCI-H460 lung
[32] = tested on: HCT-116 colon
[33] = tested on: DU-145 prostate
[34] = tested on: BT-549 breast
[35] = tested on: SF-295 CNS
[36] = tested on: A498 renal
[37] = tested on: ACHN renal
[38] = tested on: SK-MEL-2 melanoma
[39] = tested on: SF-268 CNS
[40] = tested on: NCI-H23 lung
[41] = tested on: 786-0 renal
[42] = tested on: KM12 colon
[43] = tested on: NCI-H226 lung
[44] = tested on: LOX IMVI melanoma
[45] = tested on: MOLT-4 leukemia
[46] = tested on: SNB-75 CNS
[47] = tested on: EKVX NSCLC
[48] = tested on: COLO 205 colon
[49] = tested on: OVCAR-3 ovarian
[50] = tested on: OVCAR-4 ovarian
[51] = tested on: SK-MEL-28 melanoma
[52] = tested on: MCF7 breast
[53] = tested on: HOP-92 NSCLC
[54] = tested on: HCT-15 colon
[55] = tested on: HT29 colon

In the case of `COc1cc(C2C3=C(COC3=O)Nc3c2ccc2c3CCCC2)cc2c1OCO2` (stereo not drawn), the GI50 [1] was 53.1 nM, the TGI [1] was over 77400 nM and the GI50 [2] was 45 nM. It also gave a TGI [2] of 20200 nM, a GI50 [3] of 42.6 nM and a TGI [3] of 18700 nM. The GI50 [4] was 72.3 nM, the TGI [4] was over 100000 nM and the GI50 [5] was 46.2 nM. The TGI [5] was over 100000 nM, the GI50 [6] was 36.7 nM and the TGI [6] was 45500 nM. For the same compound, the GI50 [7] was 33 nM, the TGI [7] was 67400 nM and the GI50 [8] was 36.7 nM. It also gave a TGI [8] of over 100000 nM, a GI50 [9] of 33.1 nM and a TGI [9] of 13400 nM. For the same compound, the GI50 [10] was 47.9 nM, the TGI [10] was 75300 nM and the GI50 [11] was 77.9 nM. The GI50 [12] was 19.9 nM, the TGI [12] was 49.7 nM and the GI50 [13] was 44.4 nM. The TGI [13] was over 89300 nM, the GI50 [14] was 31.1 nM and the TGI [14] was 103 nM. For the same compound, the GI50 [15] was 38.1 nM, the TGI [15] was 199 nM and the GI50 [16] was 39.1 nM. It also gave a TGI [16] of 19100 nM, a GI50 [17] of 14900 nM and a TGI [17] of over 94300 nM. For the same compound, the GI50 [18] was 39.9 nM, the TGI [18] was over 100000 nM and the GI50 [19] was 52 nM. It also gave a GI50 [20] of 41.8 nM, a TGI [20] of 14900 nM and a GI50 [21] of 89.7 nM. The TGI [21] was over 100000 nM, the GI50 [22] was 35.1 nM and the TGI [22] was over 100000 nM. For the same compound, the GI50 [23] was 337 nM, the TGI [23] was over 100000 nM and the GI50 [24] was 76.5 nM. For the same compound, the TGI [24] was over 100000 nM, the GI50 [25] was 77.5 nM and the TGI [25] was over 100000 nM. For the same compound, the GI50 [26] was 38.7 nM, the TGI [26] was over 100000 nM and the GI50 [27] was 23.9 nM. For the same compound, the TGI [27] was 1460 nM, the GI50 [28] was 31.6 nM and the TGI [28] was 90 nM. For the same compound, the GI50 [29] was 35.4 nM, the TGI [29] was over 21000 nM and the GI50 [30] was 81500 nM. The TGI [30] was over 100000 nM, the GI50 [31] was 35.3 nM and the TGI [31] was 15700 nM. For the same compound, the GI50 [32] was 39 nM, the TGI [32] was 3290 nM and the GI50 [33] was 41.6 nM. It also gave a TGI [33] of 505 nM, a GI50 [34] of 118 nM and a TGI [34] of 30500 nM. It also gave a GI50 [35] of 32.3 nM, a TGI [35] of 35500 nM and a GI50 [36] of 26.5 nM. It also gave a TGI [36] of 175 nM, a GI50 [37] of 134 nM and a TGI [37] of over 100000 nM. It also gave a GI50 [38] of 68 nM, a TGI [38] of 27400 nM and a GI50 [39] of 107 nM. The TGI [39] was 19600 nM, the GI50 [40] was 43.9 nM and the TGI [40] was 13700 nM. For the same compound, the GI50 [41] was 75.7 nM, the TGI [41] was 14400 nM and the GI50 [42] was 35.6 nM. For the same compound, the TGI [42] was 412 nM, the GI50 [43] was 34.3 nM and the TGI [43] was 185 nM. It also gave a GI50 [44] of 65.2 nM, a TGI [44] of over 100000 nM and a GI50 [45] of 130 nM. It also gave a TGI [45] of over 42400 nM, a GI50 [46] of 25.1 nM and a TGI [46] of 14500 nM. For the same compound, the GI50 [47] was 90.8 nM, the TGI [47] was over 100000 nM and the GI50 [48] was 32.2 nM. For the same compound, the TGI [48] was 94.2 nM, the GI50 [49] was 23.3 nM and the TGI [49] was 51.8 nM. It also gave a GI50 [50] of 121 nM, a TGI [50] of over 100000 nM and a GI50 [51] of 54.7 nM. For the same compound, the TGI [51] was over 100000 nM, the GI50 [52] was 35.2 nM and the TGI [52] was 8740 nM. The GI50 [53] was 364 nM, the TGI [53] was 20800 nM and the GI50 [54] was 43.2 nM. It also gave a TGI [54] of over 100000 nM, a GI50 [55] of 35.7 nM and a TGI [55] of 3970 nM.
